We go through 15 compounds from patent US20260258048A1, “LACTAM-CONTAINING IMIDAZOPYRIDAZINE IL-17 INHIBITOR COMPOUNDS” (Janssen Pharmaceutica NV, priority 2023, published 2026).

Assay [1] has as its target IL-17A(FLAG-tagged): IL-17RA(His-tagged) (Homo sapiens, UniProt Q16552, K93Q). As to the kind of experiment: IL-17A(FLAG-tagged): IL-17RA(His-tagged) binding disruption Eu-HTRF assay. In outline: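 Compound (22-point, 2-fold series) was pre-incubated 1 h at rt with FLAG-IL-17A, added as a 2× solution (1 μM). A 2× mix of C-terminal 10×His IL-17RA, Eu-anti-FLAG donor and D2-anti-His acceptor in PBS/0.01% Triton X-100/200 mM KF was then added for 2 h at rt. The 665/615 nm ratio was fitted to one-site competition for IC50.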
(In general: Time-resolved FRET reads energy transfer from a long-lived donor to a nearby acceptor.)

The test system of assay [2] is IL-17A-induced G-CSF production in human normal keratinocyte (NHK). Description: NHK assay: IL-17A-induced G-CSF production in normal human keratinocytes. The format is cell-based. The note with it: 24 h, IL-17A 5 ng/mL. The method, boiled down:
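Adult keratinocytes at 3000-4000 cells/well; recombinant human IL-17A pre-incubated 1 h at rt with titrated compound, then added to cells (final 5 ng/mL IL-17A, 0.2% DMSO, 5% FBS) for 24 h at 37 °C. Supernatant G-CSF quantified by HTRF against a standard curve to give IC50; viability checked by CellTiter-Glo versus DMSO.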

The mark [3] stands for this setting: class of the average IC50 where tested more than once.
The mark [4] stands for this setting: Homo sapiens, Keratinocyte, class of the average IC50 where tested more than once.

Bounds are passed on as bounds.

Sequence of UniProt Q16552 (Q16552 with tags, fused parts or gaps K93Q): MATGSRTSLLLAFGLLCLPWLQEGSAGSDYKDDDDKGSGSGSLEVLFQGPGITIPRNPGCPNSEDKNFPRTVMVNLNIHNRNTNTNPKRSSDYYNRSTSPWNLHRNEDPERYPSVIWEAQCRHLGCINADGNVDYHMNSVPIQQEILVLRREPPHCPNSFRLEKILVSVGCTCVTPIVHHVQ

The term IC50 denotes the point on the concentration scale where inhibition reaches its midpoint. The low end stands for greater potency in that assay, the high end for weaker potency in that assay. Consider `CC1(C)C[C@H](Cc2cnn3cc([C@@H](NC(=O)c4nonc4C4CC4)C4CCC(F)(F)CC4)nc3c2)C(=O)N1` (single isomer, unassigned) [Example 14], for which the IC50 in assay [1] (setting [3]) and in assay [2] (setting [4]) was over 4000 nM each time.

Take `O=C(N[C@H](c1cn2ncc([C@H]3C[C@]34C[C@@H](C(F)(F)F)NC4=O)cc2n1)C1CCC(F)(F)CC1)c1nonc1C1CC1` (single isomer, unassigned) [Example 40]: the IC50 in assay [1] (setting [3]) and in assay [2] (setting [4]) was over 4000 nM throughout.

As to `CC(C)(CC[C@H](NC(=O)c1nonc1C1CC1)c1cn2ncc([C@H](O)[C@H]3C[C@@H](C(F)(F)F)NC3=O)cc2n1)C(F)(F)F` (relative stereo) [Example 65, 4-Cyclopropyl-N—((S)-5,5,5-trifluoro-1-(7-((R*)-hydroxy((3R*,5S)-2-oxo-5-(trifluoromethyl)pyrrolidin-3-yl)methyl)imidazo[1,2-b]pyridazin-2-yl)-4,4-dimethylpentyl)-1,2,5-oxadiazole-3-carboxamide], the IC50 in assay [1] (setting [3]) and in assay [2] (setting [4]) was under 400 nM each time.

`COc1nonc1C(=O)N[C@H](c1cn2ncc(CC3C[C@@H](C(F)(F)F)NC3=O)cc2n1)C1CCC(F)(F)CC1` (single isomer, unassigned) [Example 8, N—((S)-(4,4-Difluorocyclohexyl)(7-(((3S*,5S)-2-oxo-5-(trifluoromethyl)pyrrolidin-3-yl)methyl)imidazo[1,2-b]pyridazin-2-yl)methyl)-4-methoxy-1,2,5-oxadiazole-3-carboxamide]: the IC50 in assay [1] (setting [3]) and in assay [2] (setting [3]) was over 4000 nM each time.

Take `Cc1nonc1C(=O)N[C@H](c1cn2ncc(CC3(CN(C)C)C[C@@H](C(F)(F)F)NC3=O)cc2n1)C1CCC(F)(F)CC1` (single isomer, unassigned) [Example 105, N—((S)-(4,4-Difluorocyclohexyl)(7-(((3S*,5S)-3-((dimethylamino)methyl)-2-oxo-5-(trifluoromethyl)pyrrolidin-3-yl)methyl)imidazo[1,2-b]pyridazin-2-yl)methyl)-4-methyl-1,2,5-oxadiazole-3-carboxamide]: the IC50 in assay [1] (setting [3]) and in assay [2] (setting [4]) was under 400 nM in each case.

`CC1(C(=O)c2cnn3cc([C@@H](NC(=O)c4nonc4C4CC4)C4CCC(F)(F)CC4)nc3c2)C[C@@H](C(F)(F)F)NC1=O` (mixture of isomers) [Example 102, 4-Cyclopropyl-N—[(S)-(4,4-difluorocyclohexyl)-[7-[(3RS,5S)-3-methyl-2-oxo-5-(trifluoromethyl)pyrrolidine-3-carbonyl]imidazo[1,2-b]pyridazin-2-yl]methyl]-1,2,5-oxadiazole-3-carboxamide]: the IC50 in assay [1] (setting [3]) and in assay [2] (setting [4]) was under 400 nM throughout.

Turning to `CC1(C)CNC(=O)C1Cc1cnn2cc([C@@H](NC(=O)c3nonc3C3CC3)C3CCC(F)(F)CC3)nc2c1` (single isomer, unassigned) [Example 15, 4-Cyclopropyl-N—[(S)-(4,4-difluorocyclohexyl)-[7-[[(3R*)-4,4-dimethyl-2-oxo-pyrrolidin-3-yl]methyl]imidazo[1,2-b]pyridazin-2-yl]methyl]-1,2,5-oxadiazole-3-carboxamide], the IC50 in assay [1] (setting [3]) and in assay [2] (setting [4]) was over 4000 nM in each case.

For `CC1(C)CC(Cc2cnn3cc([C@@H](NC(=O)c4nonc4C4CC4)C4CCC(F)(F)CC4)nc3c2)C(=O)N1` (single isomer, unassigned) [Example 13, 4-Cyclopropyl-N—[(S)-(4,4-difluorocyclohexyl)-[7-[[(3R*)-5,5-dimethyl-2-oxo-pyrrolidin-3-yl]methyl]imidazo[1,2-b]pyridazin-2-yl]methyl]-1,2,5-oxadiazole-3-carboxamide], the IC50 is under 400 nM in assay [1] (setting [3]) and 400 to 4000 nM in assay [2] (setting [4]).

With `Cc1nonc1C(=O)N[C@H](c1cn2ncc(CC3C[C@@H](C(F)(F)F)NC3=O)cc2n1)C1CCC(F)(F)CC1` (single isomer, unassigned) [Example 9, N—[(S)-(4,4-Difluorocyclohexyl)-[7-[[(3S*,5S)-2-oxo-5-(trifluoromethyl)pyrrolidin-3-yl]methyl]imidazo[1,2-b]pyridazin-2-yl]methyl]-4-methyl-1,2,5-oxadiazole-3-carboxamide], the IC50 in assay [1] (setting [3]) and in assay [2] (setting [3]) was under 400 nM in each case.

`C[C@H]1C[C@@H](Cc2cnn3cc([C@@H](NC(=O)c4nonc4C4CC4)C4CCC(F)(F)CC4)nc3c2)C(=O)N1` (relative stereo) [Example 82, 4-Cyclopropyl-N—((S)-(4,4-difluorocyclohexyl)(7-(((3R*,5S*)-5-methyl-2-oxopyrrolidin-3-yl)methyl)imidazo[1,2-b]pyridazin-2-yl)methyl)-1,2,5-oxadiazole-3-carboxamide]: the IC50 is 400 to 4000 nM in assay [1] (setting [3]) and over 4000 nM in assay [2] (setting [4]).

With `O=C(N[C@H](c1cn2ncc(CC3C(=O)NCC3C(F)(F)F)cc2n1)C1CCC(F)(F)CC1)c1nonc1C1CC1` (single isomer, unassigned) [Example 50], the IC50 in assay [1] (setting [3]) was 400 to 4000 nM; in assay [2] (setting [4]), over 4000 nM.

For `COc1nonc1C(=O)N[C@@H](CCC(C)(C)C(F)(F)F)c1cn2ncc(CC3C[C@@H](C(F)(F)F)NC3=O)cc2n1` (single isomer, unassigned) [Example 5, 4-Methoxy-N-[(1S)-5,5,5-trifluoro-4,4-dimethyl-1-[7-[[(3R*,5S)-2-oxo-5-(trifluoromethyl)pyrrolidin-3-yl]methyl]imidazo[1,2-b]pyridazin-2-yl]pentyl]-1,2,5-oxadiazole-3-carboxamide], the IC50 in assay [1] (setting [3]) and in assay [2] (setting [3]) was over 4000 nM throughout.

Consider `O=C(N[C@H](c1cn2ncc(C[C@]34CCC[C@@H](C3)NC4=O)cc2n1)C1CCC(F)(F)CC1)c1nonc1C1CC1` (relative stereo) [Example 12, 4-Cyclopropyl-N—[(S)-(4,4-difluorocyclohexyl)-[7-[[(1S*5S*)-7-oxo-6-azabicyclo[3.2.1]octan-1-yl]methyl]imidazo[1,2-b]pyridazin-2-yl]methyl]-1,2,5-oxadiazole-3-carboxamide], for which the half-inhibitory concentration (IC50) in assay [1] (setting [3]) was over 4000 nM; in assay [2] (setting [4]), 400 to 4000 nM.

Consider `CC(C)n1nccc1C(=O)N[C@H](c1cn2ncc(C[C@@H]3C[C@@H](C(F)(F)F)NC3=O)cc2n1)C1CCC(F)(F)CC1` [Example 52, N—((S)-(4,4-Difluorocyclohexyl)(7-(((3R,5S)-2-oxo-5-(trifluoromethyl)pyrrolidin-3-yl)methyl)imidazo[1,2-b]pyridazin-2-yl)methyl)-1-isopropyl-1H-pyrazole-5-carboxamide], for which the concentration for half-maximal inhibition (IC50) in assay [1] (setting [3]) was 400 to 4000 nM; in assay [1] (value in brackets, Table 4), 2450 nM; in assay [2] (setting [4]), 400 to 4000 nM; in assay [2] (Homo sapiens, Keratinocyte, value in brackets, Table 4), 2830 nM.

Turning to `CC(C)(CC[C@H](NC(=O)c1nonc1C1CC1)c1cn2ncc(CC3C[C@@](C)(C(F)(F)F)NC3=O)cc2n1)C(F)(F)F` (single isomer, unassigned) [Example 58, 4-Cyclopropyl-N—((S)-5,5,5-trifluoro-4,4-dimethyl-1-(7-(((3R*,5S)-5-methyl-2-oxo-5-(trifluoromethyl)pyrrolidin-3-yl)methyl)imidazo[1,2-b]pyridazin-2-yl)pentyl)-1,2,5-oxadiazole-3-carboxamide], the IC50 in assay [1] (setting [3]) was under 400 nM; in assay [2] (setting [3]), 400 to 4000 nM.
